# Calls of active or inactive are those of the source. No cut-off for these calls is given here.
# How the values were obtained:
# HCC827 [1] = assay: Antiproliferative activity against erlotinib-resistant doxycycline-induced RICTOR-knockdown human HCC827 cells assessed as fold decrease in compound IC50; type: functional
# HCC827 [2] = assay: Antitumor activity against erlotinib-resistant doxycycline-induced RICTOR-knockdown human HCC827 cells xenografted in mouse assessed as decrease in Axl expression; type: functional, cell-based
# HCC827 [3] = assay: Antitumor activity against erlotinib-resistant doxycycline-induced RICTOR-knockdown human HCC827 cells xenografted in mouse assessed as inhibition of tumor growth; type: functional, cell-based
# PC-9 [4] = assay: Antiproliferative activity against doxycycline-induced RICTOR-knockdown human PC-9 cells; type: functional, cell-based
# HCC827 [5] = assay: Antiproliferative activity against doxycycline-induced RICTOR-knockdown human HCC827 cells; type: functional, cell-based
# HCC827 [6] = assay: Induction of apoptosis in RICTOR-upregulated human HCC827 cells; type: functional, cell-based
# HCC827 [7] = assay: Induction of apoptosis in erlotinib-resistant human HCC827 cells with RICTOR-knockdown; type: functional, cell-based
# NCI-H23 [8] = assay: Inhibition of RICTOR-amplified human NCI-H23 cells migration; type: functional, cell-based
# NCI-H23 [9] = assay: Inhibition of RICTOR-amplified human NCI-H23 cells invasion; type: functional, cell-based
# NCI-H1703 [10] = assay: Inhibition of RICTOR-amplified human NCI-H1703 cells invasion; type: functional, cell-based
# NCI-H1703 [11] = assay: Inhibition of RICTOR-amplified human NCI-H1703 cells migration; type: functional, cell-based
# PC-9 [12] = assay: Down-regulation of Axl in RICTOR-knockdown human PC-9 cells assessed as half-life of Axl; type: functional, cell-based
# HCC827 [13] = assay: Inhibition of RICTOR-upregulated human HCC827 cell invasion; type: functional, cell-based
# NCI-H23 [14] = assay: Antitumor activity against RICTOR-knockdown human NCI-H23 cells xenografted in mouse assessed as inhibition of tumor growth; type: functional
# HCC827 [15] = assay: Inhibition of RICTOR-upregulated human HCC827 cell migration; type: functional, cell-based
SMILES,Activity (PC-9 [4]),Activity (HCC827 [5]),inhibition (NCI-H23 [8]),inhibition (NCI-H23 [9]),inhibition (NCI-H1703 [10]),inhibition (NCI-H1703 [11]),other results
C#Cc1cccc(Nc2ncnc3cc(OCCOC)c(OCCOC)cc23)c1 [ERLOTINIB],Active,Active,–,–,–,–,fold change (FC) (HCC827 [1]): 1000; Activity (HCC827 [2]): Active; Activity (HCC827 [3]): Active
C=CC(=O)Nc1cc(Nc2nccc(-c3cn(C)c4ccccc34)n2)c(OC)cc1N(C)CCN(C)C,Active,–,–,–,–,–,Activity (HCC827 [6]): inactive; Activity (HCC827 [7]): Active
CN(C)C/C=C/C(=O)Nc1cc2c(Nc3ccc(F)c(Cl)c3)ncnc2cc1O[C@H]1CCOC1,–,Active,–,–,–,–,–
CNC(=O)c1cccc(-c2ccc3c(N4CCOC[C@@H]4C)nc(N4CCOC[C@@H]4C)nc3n2)c1,–,–,Active,Active,Active,Active,–
C[C@@H]1C[C@@H]([C@H](O)CC2CC(=O)NC(=O)C2)C(=O)[C@@H](C)C1,–,–,–,–,–,–,T1/2 (PC-9 [12]): 3.2 h
CC(C)n1nc(-c2ccc3oc(N)nc3c2)c2c(N)ncnc21 [SAPANISERTIB],–,–,Active,Active,Active,Active,inhibition (HCC827 [13]): Active; TGI (NCI-H23 [14]): 75%; inhibition (HCC827 [15]): Active

# Reference: ChEMBL document CHEMBL5050837, “Rictor-targeted therapy in the management of brain metastases” (2021)
